# According to patent US9370516B2 (Pfizer Inc., priority 2012, dated 2016):
# “And” between values parts separate entries of the source, which are not always exact repeats. Identical values can stand only once.
# Assays:
# Male Wistar Han rats = assay: Locomotor activity after single oral dose; format: in vivo, rat
# Method: (§1) Male Wistar Han rats were administered a single dose (1, 10, 50, or 150 mg/kg) of (R)-2-(2-methylimidazo[2,1-b]thiazol-6-yl)-1-(2-(5-(6-methylpyrimidin-4-yl)-2,3-dihydro-1H-inden-1-yl)-2,7-diazaspiro[3.5]nonan-7-yl)ethanone (Example 1) via oral gavage to assess the effects of Example 1 on locomotor activity over a 21 hour period (FIG. 1). Animals were habituated to the locomotor apparatus one hour prior to dosing. The lights were turned off at 4 pm and turned on at 4 am. Animals were dosed at 4 pm. Activity was monitored post-dose for 20 hours. Plasma, brains and CSF were taken from a satellite group of animals at Tmax (30 minutes post dosing).
# patient GHSR1a [1] = target: T1, patient GHSR1a (Homo sapiens, UniProt Q92847); details: pre-incubation 8 hours
# From the text: (§2) The SPA format was utilized for high throughput screening of test compounds and filter binding served for more comprehensive binding characterization. In both formats test compound affinity is expressed as Ki value, defined as the concentration of compound required to decrease [^125I] ghrelin binding by 50% for a specific membrane batch at a given concentration of radioligand.
# dog GHSR1a = target: T2, dog GHSR1a (Canis lupus familiaris, UniProt A5HKU8); assay: Radioligand binding filtration format assay, dog GHSR1a; details: pre-incubation 90 minutes; read-out: Dog GHS-1aR Filter Ki (converted)
# T2 construct: dog (NM_001099945.1)
# Method: (§3) Ghrelin binding assays were performed in a final volume of 100 μl containing […] patient GHSR1a (HEK293 Tetracycline-Inducible cell line expressing the patient growth secretagogue receptor 1a; prepared as membranes) and 50 pM [^125I] ghrelin (Perkin Elmer Life Sciences, NEX-388), plus varying concentrations of test compound or vehicle.
# (§4) Assays were initiated by addition of 23 μl assay buffer (50 mM HEPES, 10 mM MgCl2, 0.2% BSA, EDTA-free protease inhibitor tablets—1 tablet/50 ml buffer, pH 7.4), 25 μl 4 mg/ml hGHSR1a membrane and 50 μl of 100 pM [^125I] ghrelin, both in assay buffer.
# (§5) Radioligand binding filtration format assays for dog (NM_001099945.1), monkey (XM_001084886.1), mouse (NM_177330), and rat (NM_032075) GHSR1a (all expressed in unique HEK293 Tetracycline-Inducible cell lines) were performed in an identical manner as described for patient GHSR1a except that the final amount of membrane to be used is as follows: 2 μg dog GHSR, 250 ng monkey GHSR, 200 ng mouse GHSR, or 125 ng rat GHSR.
# [2] = Plasma and brain levels 30 minutes post dosing; format: in vivo, rat
# Method: as §1
# patient GHSR1a [3] = target: T1, patient GHSR1a; assay: biochemical; details: for Ki: Human GHS-1aR Filter Ki
# Method: as §2
# Patient Ghrelin Filter Binding Assay
# as §3
# as §4, with “Briefly, assays were prepared at room temperature in 96-well plates (Costar, 3357) containing 2 μl of test compound in DMSO (or DMSO as vehicle). Assays” for “Assays”
# (§6) The mixture was incubated for 90 minutes at room temperature followed by transfer to a 0.3% PEI-treated, 96-well glass fiber filtration plate (Perkin Elmer, 6005174). The mixture was suctioned dry with vacuum and immediately washed 3 times with 200 μl ice cold 50 mM Tris pH 7.5. Plates were allowed to dry overnight at room temperature and 30 μl Supermix scintillant (Perkin Elmer, 1200-439) is added to each well. The amount of receptor-ligand complex was determined by liquid scintillation counting using a 1450 Microbeta Trilux (Wallac).
# humans = assay: Clinical studies B3301001, B3301002, B3301007; format: in vivo, human
# Method: Patients were administered Example 1 as an extemporaneously prepared suspension in B3301001, B3301002, and the IR in B3301007 and as an extemporaneously prepared osmotic capsule (EPOC) in B3301007. […] Dose related increase in heart rate (up to ˜10 beats per minute) as well as attenuation of both ghrelin-induced growth hormone secretion and postprandial glucose were seen after acute dosing.
# rat GHSR1a = rat GHSR1a (Rattus norvegicus, UniProt O08725); assay: biochemical; details: Rat GHS-1aR Filter Ki, pre-incubation 90 minutes
# Method: as §3
# as §4, with “Briefly, assays were prepared at room temperature in 96-well plates (Costar, 3357) containing 2 μl of test compound in DMSO (or DMSO as vehicle). Assays” for “Assays”
# as §6, with “(Wallac). […]” for “(Wallac).”
# mouse GHSR1a = mouse GHSR1a (Mus musculus, UniProt Q99P50); assay: biochemical; details: Mouse GHS-1aR Filter Ki, pre-incubation 90 minutes
# Method: as §3
# as §4, with “Briefly, assays were prepared at room temperature in 96-well plates (Costar, 3357) containing 2 μl of test compound in DMSO (or DMSO as vehicle). Assays” for “Assays”
# as §6, with “(Wallac). […]” for “(Wallac).”
# monkey GHSR1a = target: T3, monkey GHSR1a (Macaca mulatta, UniProt F6Z4B1); assay: Radioligand binding filtration format assay, monkey GHSR1a; details: pre-incubation 90 minutes; read-out: Primate GHS-1aR Filter Ki (converted)
# T3 construct: monkey (XM_001084886.1)
# Method: as §3, §4, §5
# male rhesus monkeys = assay: Primate study of sleep duration and food intake after evening dosing; format: in vivo, Macaca mulatta
# From the text: In a primate study, the effect of Example 1 on sleep duration and food intake three hours post evening dosing Example 1 was studied dosing either once a day (QD) or twice a day (BID). Eight healthy adult (5.8 to 9.7 years of age) male rhesus monkeys, (Macaca mulatta, of Indian origin) were used. Animals were studied in parallel. According to a cross-over design, four of the animals received Example 1 (or Vehicle as a control) QD during the first phase of the study and BID during the second phase of the study. A reverse treatment schedule was used for the remaining four animals. When Example 1 was administered QD, the single dose was administered in the evening. Each treatment period lasted 28-30 consecutive days. Vehicle treatment lasted 10-14 days, immediately preceding the phase where Example 1 was administered. Animals were also kept in their sleep/circadian chambers to become familiar with them. Treatment was administered as a liquid solution, dispensed automatically using a timer-controlled pump. Throughout treatment periods, animals were maintained in light-controlled and sound attenuated sleep/circadian chambers, under constant conditions of dim light, in order to determine the intrinsic rhythms of sleep/activity and self-administered food intake. Sleep/activity cycle and sleep duration was documented using continuous on-line actigraphic image analysis technique, as described in Masuda et al., J Biol Rhythms. 2010 October; 25(5):361-71, Intrinsic activity rhythms in Macaca mulatta: their entrainment to light and melatonin. A software algorithm for actigraphic data analysis of sleep versus wakefulness in rhesus monkeys is explained in Zhdanova et al., J Biol Rhythms. 2011 April; 26(2):149-59. Aging of intrinsic circadian rhythms and sleep in a diurnal nonhuman primate, Macaca mulatta. Sleep onset and duration estimates were based on the comparisons between polysomnographic and actigraphic sleep in this species. Each circadian chamber was equipped with an individual touch-screen monitor, connected to an automatic pellet dispenser (ENV-203-1000, Med Associates Inc., St. Albans, Vt.). This allowed for ad libitum around the clock self-administration of 1 g food pellets (Nutritionally complete dustless precision pellets, Bio-Serv, Frenchtown, N.J.) via pressing a moving on-screen target. The time each pellet dispensed was documented. Data analysis was conducted using linear mixed model (SPSS), with the level of significance at p<0.05. Data were presented as group means (standard error of the means (SEM)) for each treatment condition: QD or BID administration of vehicle or Example 1.
# [4] = target: broad panel of receptors, transporters, ion channels, and enzymes; assay: Selectivity against a broad panel
# patient GHSR1a [5] = target: T1, patient GHSR1a
# From the text: The assay monitors the ligand-dependent exchange of GDP for GTP. GPCR activation results in an increase in fluorescence as receptor-bound GDP is replaced by Europium-labeled GTP.
# [6] = 10 mg/kg oral gavage, 35-65 minutes post dosing
# [7] = 50 mg/kg oral gavage, 35-65 minutes post dosing
# [8] = QD and BID groups, N=8 per group, p<0.01
# [9] = individual animal, evening QD, throughout the treatment period
# T1 sequence (Q92847 whole entry): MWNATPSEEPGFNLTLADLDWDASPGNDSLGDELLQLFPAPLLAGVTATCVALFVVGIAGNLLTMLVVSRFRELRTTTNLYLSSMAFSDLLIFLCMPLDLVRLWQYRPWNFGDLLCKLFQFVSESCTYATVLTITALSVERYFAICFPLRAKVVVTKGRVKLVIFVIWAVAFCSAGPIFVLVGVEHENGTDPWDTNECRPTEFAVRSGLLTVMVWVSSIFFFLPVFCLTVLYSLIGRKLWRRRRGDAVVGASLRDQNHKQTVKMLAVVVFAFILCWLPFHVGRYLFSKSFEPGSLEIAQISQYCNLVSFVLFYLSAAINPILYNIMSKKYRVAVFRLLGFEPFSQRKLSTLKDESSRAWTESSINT
# T2 sequence (A5HKU8 1-349): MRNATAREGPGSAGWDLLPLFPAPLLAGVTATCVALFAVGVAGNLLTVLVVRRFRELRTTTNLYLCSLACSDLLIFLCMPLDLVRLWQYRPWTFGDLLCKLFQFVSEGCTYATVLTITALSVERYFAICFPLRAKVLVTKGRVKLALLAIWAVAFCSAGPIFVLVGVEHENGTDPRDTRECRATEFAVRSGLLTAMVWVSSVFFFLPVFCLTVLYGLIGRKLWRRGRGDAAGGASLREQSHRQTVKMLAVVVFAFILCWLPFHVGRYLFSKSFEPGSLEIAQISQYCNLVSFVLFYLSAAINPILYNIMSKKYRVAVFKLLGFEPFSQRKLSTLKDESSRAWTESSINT
# Chain of rat GHSR1a (O08725 whole entry): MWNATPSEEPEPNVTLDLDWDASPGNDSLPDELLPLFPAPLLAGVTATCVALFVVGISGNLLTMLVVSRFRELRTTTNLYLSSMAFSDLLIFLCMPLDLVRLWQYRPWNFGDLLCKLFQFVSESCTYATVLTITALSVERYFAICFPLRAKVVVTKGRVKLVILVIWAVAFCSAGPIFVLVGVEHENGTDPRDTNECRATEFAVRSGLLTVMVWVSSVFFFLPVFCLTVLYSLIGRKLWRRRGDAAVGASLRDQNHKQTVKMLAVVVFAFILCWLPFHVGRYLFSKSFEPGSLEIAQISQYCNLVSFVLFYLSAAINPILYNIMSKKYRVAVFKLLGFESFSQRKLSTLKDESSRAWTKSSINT
# T3 sequence (F6Z4B1 1-366): as the sequence (Q92847 whole entry) above, with P6A, D20E, Q36R, A59S, V163I counted along it
# Chain of mouse GHSR1a (Q99P50 whole entry): as the sequence (O08725 whole entry) above, with P30S, A249S counted along it
compound,measurement,setting,value
"Cc1cc(-c2ccc3c(c2)CC[C@H]3N2CC3(CCN(C(=O)Cc4cn5cc(C)sc5n4)CC3)C2)ncn1 [Example 1, (R)-2-(2-methylimidazo[2,1-b]thiazol-6-yl)-1-(2-(5-(6-methylpyrimidin-4-yl)-2,3-dihydro-1H-inden-1-yl)-2,7-diazaspiro[3.5]nonan-7-yl)ethanone]",effect on locomotor activity compared to vehicle,"Male Wistar Han rats; 1 mg/kg oral gavage, 35-65 minutes post dosing",no biologically or statistically significant effect
same,decrease in rearing,Male Wistar Han rats; [6],56%
same,decrease in total locomotor activity,Male Wistar Han rats; [6],60%
same,decrease in rearing,Male Wistar Han rats; [7],43%
same,decrease in total locomotor activity,Male Wistar Han rats; [7],48%
same,total activity compared to vehicle control,"Male Wistar Han rats; 150 mg/kg oral gavage, 35-65 minutes post dosing",reduction in total activity which was statistically significant
same,total activity,Male Wistar Han rats; 20 hours post dosing,no statistically or biologically significant reductions in total activity
same,hyperactivity,Male Wistar Han rats; any dose (1-150 mg/kg),did not induce hyperactivity
same,Human GHS-1aR SPA Ki,patient GHSR1a [1],2.24 ng/mL
same,Ki,dog GHSR1a,3.56 nM and 3.57 nM
same,Brain (nM free),[2]; 1 mg/kg oral,1.6 nM free
same,Plasma (nM free),[2]; 1 mg/kg oral,18 nM free
same,Brain (nM free),[2]; 10 mg/kg oral,16 nM free
same,Plasma (nM free),[2]; 10 mg/kg oral,184 nM free
same,Brain (nM free),[2]; 50 mg/kg oral,80 nM free
same,Plasma (nM free),[2]; 50 mg/kg oral,856 nM free
same,Brain (nM free),[2]; 150 mg/kg oral,148 nM free
same,Plasma (nM free),[2]; 150 mg/kg oral,1704 nM free
same,Ki,patient GHSR1a [3]; pre-incubation 90 minutes,2.49 nM and 2.5 nM
same,Ki,patient GHSR1a [3]; pre-incubation 24 hours,1.42 nM
same,Kd,"patient GHSR1a [3]; Human GHS-1aR Filter Motulsky Kd, Equilibrium 4.07 hours",3.04 nM
same,Kd,patient GHSR1a [3]; human Kd via Patient Ghrelin Filter Binding Assay,3 nM
same,dose related increase in heart rate,humans; after acute dosing,≤ 10 beats per minute
same,ghrelin-induced growth hormone secretion,humans; after acute dosing,attenuation
same,postprandial glucose,humans; after acute dosing,attenuation
same,safety and tolerability in humans,humans; up to 100 mg BID for 14 days,safe and generally well tolerated
same,Ki,rat GHSR1a,3.19 nM and 3.2 nM
same,Ki,mouse GHSR1a,7.7 nM
same,Ki,monkey GHSR1a,1.83 nM
same,change in food intake within 3 hours of evening administration vs vehicle,male rhesus monkeys; [8],significant decrease in food intake
same,change in sleep duration within 3 hours of evening treatment vs vehicle,male rhesus monkeys; [8],significant increase in sleep duration
same,food intake soon after administration,male rhesus monkeys; [9],significantly reduced food intake
same,sleep latency,male rhesus monkeys; [9],significantly reduced sleep latency
same,IC50,[4],> 1000 nM
same,functionality of the test compound,patient GHSR1a [5],inverse agonist
